From paper PMC7486383, “Protrudin and PDZD8 contribute to neuronal integrity by promoting lipid extraction required for endosome maturation” (Nature Communications, 2020)
Structures can show the parent of a compound that is named as a salt.

Legend:
GST-PDZD8(ΔTM) = molecular target: T1, GST-PDZD8(ΔTM) (Mus musculus, UniProt B9EJ80); experiment: liposome-FRET lipid extraction assay; type: binding; conditions: labelled compound; donor liposomes PC/PE/rhodamine-PE; 25 °C
T1 sequence (B9EJ80 25-1147 limits assumed): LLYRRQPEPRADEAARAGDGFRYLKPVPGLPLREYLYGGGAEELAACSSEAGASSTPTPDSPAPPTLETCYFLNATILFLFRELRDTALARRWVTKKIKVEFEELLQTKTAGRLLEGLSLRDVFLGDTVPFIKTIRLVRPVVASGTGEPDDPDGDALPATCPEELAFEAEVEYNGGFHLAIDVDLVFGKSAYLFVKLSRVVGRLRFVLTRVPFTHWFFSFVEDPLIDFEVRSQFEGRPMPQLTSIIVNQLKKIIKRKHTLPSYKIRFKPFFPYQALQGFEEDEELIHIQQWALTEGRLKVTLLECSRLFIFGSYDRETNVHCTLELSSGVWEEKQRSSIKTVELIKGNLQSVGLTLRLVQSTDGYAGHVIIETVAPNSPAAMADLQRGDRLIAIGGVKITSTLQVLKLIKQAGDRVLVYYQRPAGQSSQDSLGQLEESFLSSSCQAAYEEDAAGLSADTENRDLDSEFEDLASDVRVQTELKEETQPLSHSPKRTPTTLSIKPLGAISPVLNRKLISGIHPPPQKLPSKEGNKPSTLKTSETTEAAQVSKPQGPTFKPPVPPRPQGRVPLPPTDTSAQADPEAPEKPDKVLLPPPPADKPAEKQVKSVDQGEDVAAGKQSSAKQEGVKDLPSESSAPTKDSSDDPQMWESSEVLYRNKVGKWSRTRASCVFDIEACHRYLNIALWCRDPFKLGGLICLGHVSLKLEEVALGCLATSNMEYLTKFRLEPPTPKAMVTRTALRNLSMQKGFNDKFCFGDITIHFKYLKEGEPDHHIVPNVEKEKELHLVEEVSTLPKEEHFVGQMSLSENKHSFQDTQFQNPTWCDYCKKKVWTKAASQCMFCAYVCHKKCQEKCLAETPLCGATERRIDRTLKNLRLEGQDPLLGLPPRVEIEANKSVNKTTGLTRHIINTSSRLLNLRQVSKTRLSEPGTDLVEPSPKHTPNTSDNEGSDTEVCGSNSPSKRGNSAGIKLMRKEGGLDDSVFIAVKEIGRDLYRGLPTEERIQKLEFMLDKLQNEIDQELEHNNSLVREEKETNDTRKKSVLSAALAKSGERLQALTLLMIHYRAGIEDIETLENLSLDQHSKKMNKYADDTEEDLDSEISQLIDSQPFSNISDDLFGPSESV

PDZD8(SMP-PDZ) = molecular target: T2, PDZD8(SMP-PDZ) (Mus musculus, UniProt B9EJ80); experiment: liposome-FRET lipid extraction assay; type: binding; conditions: labelled compound; donor liposomes PC/PE/rhodamine-PE; 25 °C
T2 sequence (B9EJ80 87-448 limits assumed): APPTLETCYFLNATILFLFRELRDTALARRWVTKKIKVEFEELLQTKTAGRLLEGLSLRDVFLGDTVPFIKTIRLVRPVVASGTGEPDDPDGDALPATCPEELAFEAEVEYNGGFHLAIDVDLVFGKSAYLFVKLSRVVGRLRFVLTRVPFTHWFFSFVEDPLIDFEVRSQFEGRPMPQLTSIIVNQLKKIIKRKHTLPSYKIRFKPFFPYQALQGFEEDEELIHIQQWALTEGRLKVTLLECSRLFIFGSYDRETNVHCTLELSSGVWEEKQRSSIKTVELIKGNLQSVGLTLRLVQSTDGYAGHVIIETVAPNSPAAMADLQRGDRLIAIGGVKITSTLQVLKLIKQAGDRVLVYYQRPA

Row | Structure (SMILES) | initial velocity of lipid extraction (GST-PDZD8(ΔTM)) | initial velocity of lipid extraction (PDZD8(SMP-PDZ))
1 | CCCCCCCCCCCCC/C=C/[C@@H](O)[C@H](CO)NC(=O)CCCCCNc1ccc([N+](=O)[O-])c2nonc12 [C6-NBD-ceramide, N-{6-[(7-nitro-2-1,3-benzoxadiazol-4-yl)amino]hexanoyl}-D-erythro-sphingosine] | PDZD8(ΔTM) also showed high extraction activity for ceramide | –
2 | CCCCCCCCCCCCCCCC(=O)OC[C@H](COP(=O)(O)OC[C@H](N)C(=O)O)OC(=O)CCCCCCCCCCCNc1ccc([N+](=O)[O-])c2nonc12 [NBD-PS, 1-palmitoyl-2-{12-[(7-nitro-2-1,3-benzoxadiazol-4-yl)amino]dodecanoyl}-sn-glycero-3-phosphoserine (ammonium salt)] | with the initial velocity of lipid extraction being greatest for PS | The activity of PDZD8(SMP-PDZ) was also about half that of PDZD8(ΔTM)
